Laboratory results reported in patent publication US20250276960A1, “CRYSTALLINE FORMS OF (R)-6-CHLORO-3-((1-(2-CYANO-7-METHYL-3-MORPHOLINOQUINOXALIN-5-YL)ETHYL)AMINO)PICOLINIC ACID” (MIRATI THERAPEUTICS, INC., priority 2024, published 2025).
≈ marks a conversion by molar mass, not a printed value.

How the values were obtained:
[1] = tested on: phospho-AKT (pAKT) in T47D (H1047R) cells; experiment: pAKT alphaLISA Surefire Ultra AKT 1/2/3 (pS473) assay in T47D cells; format: cell-based; details: Homo sapiens, 24 hr treatment
Method: (§1) The ability of a Compound 1 to inhibit the formation of pAKT was measured using alphaLISA Surefire Ultra AKT 1/2/3 (pS473) Assay Kit (#ALSU-PAKT-B50K) was obtained from Perkin Elmer (Waltham, MA). The ability of Compound 1 to decrease the viability of cells was measured using CellTiter-Glo 2.0 (CTG) Luminescent Cell Viability Assay (#G9241) obtained from Promega (Madison, WI).
To prepare assay plates for pAKT alphaLISA assays, cells were trypsinized, resuspended in fresh media, and viable cells were counted utilizing trypan blue exclusion. Prior to seeding, cells were washed with PBS and resuspended in HBSS (Gibco, #14025092). […]
Immediately after seeding, cells were dosed using an Echo Liquid Handler (Beckman Coulter) with compounds at a 10.4 μm starting concentration and serially diluted (1:4) for a total of 10concentrations. […] Plates were then imaged the following day using a CLARIOstar microplate reader (BMG Labtech, Germany).
Percent of control values were calculated by subtracting the average signal from the positive control (alpelisib) treated wells from all treated wells (including DMSO control wells) and then divided by the average signal from the vehicle DMSO treated control wells. Percent of vehicle control values were plotted as log (inhibitor) vs. response-Variable slope (four parameters) for curve fitting and IC50 values were determined using XLfit.

[2] = tested on: T47D (H1047R mutant) cells; experiment: CellTiter-Glo 2.0 cell viability assay, T47D; format: cell-based; details: Homo sapiens, 72 hours, CTG
Method: as §1
To prepare assay plates for viability assays, cells were trypsinized, resuspended in fresh media, and viable cells were counted utilizing trypan blue exclusion. […]
Assay day 1, cells were dosed using an Echo Liquid Handler (Beckman Coulter) with compounds at a 10 μm starting concentration and serially diluted (1:4) for a total of 10concentrations. […] After 72 hours of treatment, cell plates were equilibrated to room temperature before adding 15 μl of CTG to each well, plates were then covered in aluminum foil to protect from light, incubated at room temperature for 30 minutes on a microtiter plate shaker, and luminescence readings were collected using a CLARIOstar microplate reader (BMG Labtech, Germany). Percent of vehicle control values were plotted as log (inhibitor) vs. response-Variable slope (four parameters) for curve fitting and IC50 values were determined using XLfit.

[3] = Solubility of amorphous solids of Compound 1 in single solvents at room temperature; format: physicochemical
Method: The amorphous solids of Compound 1 as prepared in Example 1 was measured in 20 single solvents at room temperature and crystallization screening was then conducted in the same set of solvents. For each solvent tested, a slurry of the amorphous solids and the solvent was prepared with a […] and the amorphous solids were allowed to dissolve. The slurry was then agitated with a stir bar for approximately 1 hour at room temperature. The wet solids were then analyzed by powder X-ray diffraction (PXRD). The solids were collected and dried under vacuum for 1 day and the crystalline form was confirmed by PXRD. Only one crystalline form was obtained and designated as Form 1.

[4] = Dynamic vapor sorption (DVS) of crystalline form; format: physicochemical; details: crystalline form (Form 1)
Method: (§2) The crystalline form of Compound 1 is highly crystalline and has a needle/thin rod-like morphology. FIG. 2A and 2B are polarized light microscopy (PLM) images of this crystalline form of Compound 1. Additionally, the crystalline form of Compound 1 was characterized by PXRD, DSC, TGA, ^1H-NMR, HPLC, and DVS. The solvent used for the ^1H-NMR was methanol.
(§3) The crystalline form has a high melting temperature (˜177-180° C.) with no thermal degradation until >210° C. The crystalline form appears to be an anhydrous form and is non-hygroscopic. The crystalline form was analyzed by PXRD before and after DVS.

[5] = Thermal stability (DSC/TGA) of crystalline form; format: physicochemical; details: crystalline form (Form 1)
Method: as §2, §3

With Cc1cc([C@@H](C)Nc2ccc(Cl)nc2C(=O)O)c2nc(N3CCOCC3)c(C#N)nc2c1 [Compound 1, (R)-6-chloro-3-((1-(2-cyano-7-methyl-3-morpholinoquinoxalin-5-yl)ethyl)amino) picolinic acid] the IC50 [1] was 0.0018 µM, the IC50 [2] was 0.024 µM and the solubility ([3]; organic solvent or mixture, thermodynamic from solid, 1,4-Dioxane) was greater than 221 mg/mL. It also gave a solubility ([3]; organic solvent or mixture, thermodynamic from solid, 2-MeTHF) greater than 230 mg/mL, a solubility ([3]; organic solvent or mixture, thermodynamic from solid, ACN) greater than 202 mg/mL and a solubility ([3]; organic solvent or mixture, thermodynamic from solid, DCM) greater than 192 mg/mL. It also gave a solubility ([3]; organic solvent or mixture, thermodynamic from solid, DMF) greater than 216 mg/mL, a solubility ([3]; organic solvent or mixture, thermodynamic from solid, DMSO) greater than 241 mg/mL and a solubility ([3]; organic solvent or mixture, thermodynamic from solid, EtOAc) greater than 204 mg/mL. The solubility ([3]; organic solvent or mixture, thermodynamic from solid, EtOH) was 43 to 53.7 mg/mL (≈ 94.9 to 119 mM), the solubility ([3]; organic solvent or mixture, thermodynamic from solid, IPA) was 14.4 to 16.8 mg/mL (≈ 31.8 to 37.1 mM) and the solubility ([3]; organic solvent or mixture, thermodynamic from solid, IPAc) was greater than 221 mg/mL. For the same molecule, the solubility ([3]; organic solvent or mixture, thermodynamic from solid, MEK) was greater than 191 mg/mL, the solubility ([3]; organic solvent or mixture, thermodynamic from solid, MIBK) was greater than 189 mg/mL and the solubility ([3]; organic solvent or mixture, thermodynamic from solid, MTBE) was 102 to 221 mg/mL (≈ 226 to 488 mM). The solubility ([3]; organic solvent or mixture, thermodynamic from solid, MeOH) was greater than 210 mg/mL, the solubility ([3]; organic solvent or mixture, thermodynamic from solid, THF) was greater than 215 mg/mL and the solubility ([3]; organic solvent or mixture, thermodynamic from solid, acetone) was greater than 230 mg/mL. For the same molecule, the solubility ([3]; organic solvent or mixture, thermodynamic from solid, heptane) was less than 1.3 mg/mL, the solubility ([3]; organic solvent or mixture, thermodynamic from solid, nPA) was 47.1 to 58.9 mg/mL (≈ 104 to 130 mM) and the solubility ([3]; organic solvent or mixture, thermodynamic from solid, toluene) was greater than 204 mg/mL. For the same molecule, the solubility ([3]; thermodynamic from solid, water) was less than 1.3 mg/mL, the “Form change by PXRD before and after DVS” value [4] was “no form change” and the “Hygroscopicity (DVS)” value [4] was “non-hygroscopic”. The “DVS weight gain at 80% RH” value ([4]; 80% RH) was 0.11% and the “Temperature until which no thermal degradation” value [5] was greater than 210 °C.
